{"source": "paper PMC3201017", "about": "“Modification of the loops in the ligand-binding site turns avidin into a steroid-binding protein” (BMC Biotechnology, 2011)", "molecules": {"B1": {"name": "steroid-binding avidin mutant sbAvd-1 (designed binder)", "chain": "ARKCSLTGKWTNRMNHNMTIGAVNSRGEFTGTYITAVTATSNEIKESPLHGTQNTINKRTQPTFGFTVNWKFSESTTVFTGQCFIDRNGKEVLKTMWLLRSSVNDIGDDWKATRVGINIFTRLRTQKE", "notes": "chicken avidin (Avd) with the loop between beta-strands 1 and 2 (N12, D13, L14, G15, S16) changed to N12, R13, M14, N15, H16; selected by phage display from the Avd L1,2 library; source: E. coli BL21-AI, pET101/D, secreted with the OmpA signal of Bordetella avium, purified (Ni-NTA)"}, "B2": {"name": "steroid-binding avidin mutant sbAvd-2 (designed binder)", "chain": "B1 chain with T35A, A36T, T38N", "notes": "selected by phage display from the sbAvd-1 L3,4 library; source: E. coli BL21-AI, pET101/D, secreted with the OmpA signal of Bordetella avium, purified (Ni-NTA)"}}, "key": {"[1]": {"target": "T1, sbAvd-1 (steroid-binding avidin mutant) (Gallus gallus, UniProt P02701, D37R/L38M/G39N/S40H)", "T1 construct": "gene AVD; full avidin core, homotetramer, produced in E. coli", "assay": "SPR competition on testosterone-BSA chip, […] inhibitor"}, "[2]": {"target": "T2, sbAvd-2 (steroid-binding avidin mutant) (Gallus gallus, UniProt P02701, D37R/L38M/G39N/S40H/T59A/A60T/T62N)", "T2 construct": "gene AVD; full avidin core, homotetramer, produced in E. coli", "T2 sequence (P02701 25-152 D37R/L38M/G39N/S40H/T59A/A60T/T62N)": "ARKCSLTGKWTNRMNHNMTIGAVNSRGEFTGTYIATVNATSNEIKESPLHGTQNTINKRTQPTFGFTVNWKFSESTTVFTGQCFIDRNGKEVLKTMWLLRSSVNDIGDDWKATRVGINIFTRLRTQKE", "assay": "SPR competition on testosterone-BSA chip, […] inhibitor"}, "[3]": {"target": "T2, sbAvd-2 (steroid-binding avidin mutant)", "assay": "microplate binding to immobilized HSA-conjugated progesterone"}, "[4]": {"target": "T1, sbAvd-1 (steroid-binding avidin mutant)", "assay": "microplate binding to immobilized HSA-conjugated progesterone"}, "[5]": {"target": "the molecule itself", "assay": "SEC; FPLC gel-filtration, Superdex 200 10/300 GL, calibrated with a molecular-mass standard; 20 mM sodium phosphate pH 7.4, 1 M NaCl, 20 mM imidazole; 90-193 μg protein in 500 μl"}}, "note": "Positions count from the first letter of the chain named. Where a name gives a salt, the structure may show the parent alone.", "data": [{"molecule": "C[C@]12CC[C@H](OS(=O)(=O)O)CC1=CC[C@@H]1[C@@H]2CC[C@]2(C)C(=O)CC[C@@H]12", "note": "[DHEAS, dehydroepiandrosterone sulfate]", "values": [{"measurement": "SPR competition on testosterone-BSA chip, 50 μM inhibitor", "setting": "[1]", "value": "SbAvd-1 was found to be cross-reactive with androgens highly similar to testosterone (DHEAS and androstenedione)"}, {"measurement": "SPR competition on testosterone-BSA chip, 50 μM inhibitor", "setting": "[2]", "value": "The binding of sbAvd-2 to testosterone was found to be most efficiently inhibited by testosterone and DHEAS"}]}, {"molecule": "CC(=O)[C@H]1CC[C@H]2[C@@H]3CCC4=CC(=O)CC[C@]4(C)[C@H]3CC[C@]12C", "note": "[PRO, progesterone]", "values": [{"measurement": "microplate binding to immobilized HSA-conjugated progesterone", "setting": "[3]", "value": "these modified Avds showed clear binding to testosterone and progesterone"}, {"measurement": "microplate binding to immobilized HSA-conjugated progesterone", "setting": "[4]", "value": "sbAvd-1 also binds other steroid hormones, such as progesterone and DHEAS"}]}, {"molecule": "B1", "values": [{"measurement": "stoichiometry N", "setting": "[5]", "value": 4}]}, {"molecule": "B2", "values": [{"measurement": "stoichiometry N", "setting": "[5]", "value": 4}]}]}
